What was measured:
PAF = test: PAF-induced bronchospasm in guinea pigs (in vivo, oral); parameters: species or system guinea pig; conditions: PAF 0.4 μg/kg i.v.
Method: (§1) B. In Vivo Studies: Agonist-Induced Responses Spasmogen-Induced Bronchospasm in Guinea Pigs
(§2) Male Hartley guinea pigs (450-550 g) were obtained from Charles River Breeding Laboratories. The animals were fasted overnight and the following day were anesthetized with 0.9 mL/kg i.p. of dialurethane (containing 0.1 g/mL dialylbarbiturikc acid, 0.4 g/mL ethylurea and 0.4 g/mL urethane). The left jugular vein was cannulated for the administration of compounds. The trachea was cannulated and the animals were venticlated by a rodent respirator at 55 strokes/min. with a stroke volume of 4 mL. A side arm to the tracheal cannula was connected to a pressure transducer to obtain a continuous measure of inflation pressure. Bronchoconstriction was measured as the percent increase in inflation pressure that peaked within 5 min. after challenge with spasmogen. The animals were challenged i.v. with either histamine (10 ug/kg) or PAF (0.4 μg/kg in isotonic saline containing 0.25% BSA). Each animal was challenged with only a single spasmogen. The effect of a compound on the bronchospasm is expressed as a percent inhibition of the increase in inflation pressure compared to the increase in a control group.

[1] = test system: PAF-induced platelet aggregation; test: Platelet Aggregation Assay (PAF antagonism, in vitro); type: cell-based; conditions: human platelet-rich plasma, PAF 1-5×10^-8 M, 37° C.
Method: Platelet Aggregation Assay
Platelet-activating factor (PAF) causes aggregation of platelets by a receptor-mediated mechanism. Therefore, PAF-induced platelet aggregation provides a simple and convenient assay to screen compounds for PAF antagonism.
Human blood (50 mL) was collected from healthy male donors in an anticoagulant solution (5 mL) containing sodium citrate (3.8%) and dextrose (2%), Blood was centrifuged at 110×g for 15 min. and the supeernatant platelet-rich plasma (PRP) carefully transferred into a polypropylene tube. Platelet-poor-plasma (PPP) was prepared by centrifuging PRP at 12,000×g for 2 min. (Beckman Microfuge B). PRP was used within 3 hr. of drawing the blood.
PAF was dissolved In chloroform:methanol (1:1, v/v) at a concentration of 2 mg/mL and stored at -70° C. An aliquot of this solution was transferred to a polypropylene tube and dried under a flow of nitrogen gas. To the dried sample was added Hepes-e-BSA (BSA=bovine serum albumen) buffer (25 mM Hepes, pH 7.4, […], 0.7 mM MgCl2 and 0.1% BSA) to obtain a 1 mM solution and sonicated for 5 min. in a bath sonicator. This stock solution was further diluted to appropriate concentrations in Hepes-saline-BSA buffer. Collagen (Sigma) and adenosine diphosphate (ADP) (Sigma) were purchased as solutions. Test compounds were initially dissolved in dimethyl sulfoxide (DMSO) at a concentration of 50 mM and then further diluted in Hepes-saline-BSA buffer to achieve appropriate concentrations.
When an aggregating agen such as PAF is added to PRP, platelets aggregate. An aggregometer quantifies this aggreation by measuring and comparing light (infra-red) transmission through PPP and PRP. Aggregation assays were performed using a dual-channel aggregometer (Model 440, Chrono-Log Corp., Havertown, Pa.). PRP (0.45 mL) in aggregometer cuvettes was continually stirred (37° C.). Solution (50 μL) of test compounds or vehicle were added to the PRP and, after incubation for 2 min., 10-15 μl aliquots of PAF solution were added to achieve a final concentration of 1-5×10^-8 M. In different experiments the aggregatory response was kept within a set limit by varying the concentration of PAF. Incubations were continued until the increase in light transmission reached a maximum (usually 2 min.). This increase in lighyt transmission reflecting platlet aggregation is transmitted to a computer by the Chrono-Log model 810 AGGRO/LINK interface. The AGGRO/LINK calculates the slope of transmission change, thus providing the rate of aggregation. Values for inhibition were calculated by comparing rates of aggregation obtained in the absence and the presence of the compound. […]

Histamine = test: Histamine-induced bronchospasm in guinea pigs (in vivo, oral); parameters: species or system guinea pig; conditions: histamine 10 ug/kg i.v.
Method: as §1, §2

[2] = oral 3 mg/kg, 2 hours after drug
[3] = oral 5 mg/kg, 8 hours after drug
[4] = oral 15 mg/kg, 16 hours after drug
[5] = oral 10 mg/kg, 6 hours after drug
[6] = oral 10 mg/kg, 16 hours after drug
[7] = oral 15 mg/kg, 8 hours after drug

Row | SMILES | Agonist Bronchospasm (in vivo)-Oral, PAF, Inhibition (PAF; oral 10 mg/kg, 2 hours after drug) [%] | IC50 [1] [µM] | Agonist Bronchospasm (in vivo)-Oral, Histamine, Inhibition (Histamine; [2]) [%] | Agonist Bronchospasm (in vivo)-Oral, Histamine, Inhibition (Histamine; [3]) [%] | Agonist Bronchospasm (in vivo)-Oral, Histamine, Inhibition (Histamine; [4]) [%] | Agonist Bronchospasm (in vivo)-Oral, PAF, Inhibition (PAF; [2]) [%] | Agonist Bronchospasm (in vivo)-Oral, PAF, Inhibition (PAF; [3]) [%] | Agonist Bronchospasm (in vivo)-Oral, PAF, Inhibition (PAF; [4]) [%] | Agonist Bronchospasm (in vivo)-Oral, Histamine, Inhibition (Histamine; [5]) [%] | Agonist Bronchospasm (in vivo)-Oral, Histamine, Inhibition (Histamine; [6]) [%] | Agonist Bronchospasm (in vivo)-Oral, PAF, Inhibition (PAF; [5]) [%] | Agonist Bronchospasm (in vivo)-Oral, PAF, Inhibition (PAF; [6]) [%] | Agonist Bronchospasm (in vivo)-Oral, Histamine, Inhibition (Histamine; [7]) [%] | Agonist Bronchospasm (in vivo)-Oral, PAF, Inhibition (PAF; [7]) [%]
1 | CC(=O)N1CCC(=C2c3ccc(Cl)cc3OCc3cccnc32)CC1 [Compound No. 2] | 27 | 6 | – | – | – | – | – | – | – | – | – | – | – | –
2 | O=C(c1cc[n+]([O-])cc1)N1CCC(=C2c3ccc(Cl)cc3CCc3cccnc32)CC1 [Compound No. 3] | – | 0.2 | 37 | 33 | 64 | 93 | 12 | 13 | – | – | – | – | – | –
3 | O=C(c1cc[n+]([O-])cc1)N1CCC(=C2c3ccc(Cl)cc3OCc3cccnc32)CC1 [Compound No. 4, 4-(8-Chloro-5,11-dihydro 1!benzoxepino 4,3-b!pyridin-11-ylidene)-1-(4-pyridinylcarbonyl)piperidine N^1-oxide] | – | 0.4 | 46 | – | – | 76 | – | – | 73 | 95 | 94 | 55 | – | –
4 | CC(=O)N1CCC(=C2c3ccc(Cl)cc3CCc3cccnc32)CC1 [Compound No. 1] | – | 0.6 | 49 | – | – | 3 | – | – | – | – | – | – | 100 | 32

Reference: patent US5514687A, “Benzopyrido piperidylidene compounds, compositions, methods of manufacture and method of use” (Schering Corporation, priority 1993, dated 1996)
